Active and inactive are the calls of the source. The calls are words filed in the database; no cut-off is given here.
Experiments:
[1] = target: T1, Farnesyl pyrophosphate synthase (Rattus norvegicus) (UniProt P05369); assay: Inhibition of rat FPPS expressed in Escherichia coli BL21 (DE3) using GPP and IPP as substrate at 10 uM incubated for 10 mins by microplate reader
T1 sequence (whole entry): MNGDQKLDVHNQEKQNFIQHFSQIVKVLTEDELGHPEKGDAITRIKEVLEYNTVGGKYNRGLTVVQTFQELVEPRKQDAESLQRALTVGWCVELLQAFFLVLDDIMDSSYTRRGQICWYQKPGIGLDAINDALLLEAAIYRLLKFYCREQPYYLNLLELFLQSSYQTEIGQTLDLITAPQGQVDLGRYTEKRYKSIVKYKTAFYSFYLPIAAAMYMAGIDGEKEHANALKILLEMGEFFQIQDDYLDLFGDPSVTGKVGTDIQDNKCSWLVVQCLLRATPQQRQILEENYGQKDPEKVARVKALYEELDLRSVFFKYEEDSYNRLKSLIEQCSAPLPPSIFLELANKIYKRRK

[2] = target: T2, Farnesyl pyrophosphate synthase (Rattus norvegicus, UniProt P05369); assay: Binding affinity to rat FPPS expressed in Escherichia coli BL21 (DE3) by isothermal titration calorimetry
T2 sequence (P05369 whole entry): T1 sequence (whole entry)

LoVo [3] = assay: Growth inhibition of human LoVo cells at 100 uM incubated for 48 hrs by MTT assay relative to control; type: functional; settings: read-out: GI
HCT-116 [4] = assay: Growth inhibition of human HCT116 cells at 100 uM incubated for 48 hrs by MTT assay relative to control; type: functional; settings: read-out: GI
LoVo [5] = assay: Cytotoxicity against FPPS-positive human Lovo cells assessed as reduction in cell viability measured after 48 hrs by MTT assay
HCT-116 [6] = assay: Cytotoxicity against FPPS-positive human HCT116 cells assessed as reduction in cell viability measured after 48 hrs by MTT assay; settings: HCT-116, 48 h
MDA-MB-231 = assay: Cytotoxicity against FPPS-negative human MDA-MB-231 cells assessed as reduction in cell viability measured after 48 hrs by MTT assay; type: functional, cell-based; settings: MDA-MB-231, 48 h
LoVo [7] = assay: Cytotoxicity against FPPS-positive human Lovo cells assessed as cell viability at 100 uM in presence of FOH measured after 48 hrs by MTT assay; type: functional; settings: read-out: Activity
LoVo [8] = assay: Cytotoxicity against FPPS-positive human Lovo cells assessed as cell viability at 100 uM in presence of GGOH measured after 48 hrs by MTT assay; type: functional; settings: read-out: Activity
HCT-116 [9] = assay: Cytotoxicity against FPPS-positive human HCT116 cells assessed as cell viability at 100 uM in presence of FOH measured after 48 hrs by MTT assay; type: functional; settings: read-out: Activity
HCT-116 [10] = assay: Cytotoxicity against FPPS-positive human HCT116 cells assessed as cell viability at 100 uM in presence of GGOH measured after 48 hrs by MTT assay; type: functional; settings: read-out: Activity
LoVo [11] = assay: Reduction in Ras protein expression in FPPS-positive human LoVo cells upto 75 uM measured after 48 hrs by Western blot analysis; type: functional; settings: dose microM <=75, time 48.0 hrs
HCT-116 [12] = assay: Reduction in Ras protein expression in FPPS-positive human HCT116 cells upto 75 uM measured after 48 hrs by Western blot analysis; type: functional, cell-based; settings: dose microM <=75, time 48.0 hrs
LoVo [13] = assay: Induction of ROS generation in human Lovo cells assessed as intracellular ROS level at 75 uM by DCFH-DA staining-based flow cytometric analysis (reference value: 9.18%); type: functional
HCT-116 [14] = assay: Induction of ROS generation in human HCT116 cells assessed as intracellular ROS level at 75 uM by DCFH-DA staining-based flow cytometric analysis (reference value: 8.91%); type: functional
LoVo [15] = assay: Induction of apoptosis in human Lovo cells assessed as viable cells at 25 uM after 48 hrs by Annexin V/FITC staining based flow cytometric analysis (reference value: 91.1%); type: functional; settings: read-out: Activity
LoVo [16] = assay: Induction of apoptosis in human Lovo cells assessed as early apoptotic cells at 25 uM after 48 hrs by Annexin V/FITC staining based flow cytometric analysis (reference value: 6.76%); type: functional
LoVo [17] = assay: Induction of apoptosis in human Lovo cells assessed as late apoptotic cells at 25 uM after 48 hrs by Annexin V/FITC staining based flow cytometric analysis (reference value: 1.84%); type: functional
LoVo [18] = assay: Induction of apoptosis in human Lovo cells assessed as necrotic cells at 25 uM after 48 hrs by Annexin V/FITC staining based flow cytometric analysis (reference value: 0.321%); type: functional
LoVo [19] = assay: Induction of apoptosis in human Lovo cells assessed as viable cells at 50 uM after 48 hrs by Annexin V/FITC staining based flow cytometric analysis (reference value: 91.1%); type: functional; settings: read-out: Activity
LoVo [20] = assay: Induction of apoptosis in human Lovo cells assessed as early apoptotic cells at 50 uM after 48 hrs by Annexin V/FITC staining based flow cytometric analysis (reference value: 6.76%); type: functional
LoVo [21] = assay: Induction of apoptosis in human Lovo cells assessed as late apoptotic cells at 50 uM after 48 hrs by Annexin V/FITC staining based flow cytometric analysis (reference value: 1.84%); type: functional
LoVo [22] = assay: Induction of apoptosis in human Lovo cells assessed as necrotic cells at 50 uM after 48 hrs by Annexin V/FITC staining based flow cytometric analysis (reference value: 0.321%); type: functional
LoVo [23] = assay: Induction of apoptosis in human Lovo cells assessed as viable cells at 75 uM after 48 hrs by Annexin V/FITC staining based flow cytometric analysis (reference value: 91.1%); type: functional; settings: read-out: Activity
LoVo [24] = assay: Induction of apoptosis in human Lovo cells assessed as early apoptotic cells at 75 uM after 48 hrs by Annexin V/FITC staining based flow cytometric analysis (reference value: 6.76%); type: functional
LoVo [25] = assay: Induction of apoptosis in human Lovo cells assessed as late apoptotic cells at 75 uM after 48 hrs by Annexin V/FITC staining based flow cytometric analysis (reference value: 1.84%); type: functional
LoVo [26] = assay: Induction of apoptosis in human Lovo cells assessed as necrotic cells at 75 uM after 48 hrs by Annexin V/FITC staining based flow cytometric analysis (reference value: 0.321%); type: functional
[27] = Reduction in Ras protein expression in FPPS-positive human HCT116 cells assessed as mean fluorescence intensity upto 75 uM measured after 48 hrs by Western blot analysis relative to untreated control; type: functional, HCT-116; settings: dose microM <=75
[28] = Reduction in Ras protein expression in FPPS-positive human LoVo cells assessed as mean fluorescence intensity upto 75 uM measured after 48 hrs by Western blot analysis relative to untreated control; type: functional; settings: dose microM <=75
HCT-116 [29] = assay: Induction of apoptosis in human HCT116 cells assessed as viable cells at 25 uM after 48 hrs by Annexin V/FITC staining based flow cytometric analysis (reference value: 92%); type: functional; settings: read-out: Activity
HCT-116 [30] = assay: Induction of apoptosis in human HCT116 cells assessed as early apoptotic cells at 25 uM after 48 hrs by Annexin V/FITC staining based flow cytometric analysis (reference value: 1.26%); type: functional
HCT-116 [31] = assay: Induction of apoptosis in human HCT116 cells assessed as late apoptotic cells at 25 uM after 48 hrs by Annexin V/FITC staining based flow cytometric analysis (reference value: 5.63%); type: functional
HCT-116 [32] = assay: Induction of apoptosis in human HCT116 cells assessed as necrotic cells at 25 uM after 48 hrs by Annexin V/FITC staining based flow cytometric analysis (reference value: 1.12%); type: functional
HCT-116 [33] = assay: Induction of apoptosis in human HCT116 cells assessed as viable cells at 50 uM after 48 hrs by Annexin V/FITC staining based flow cytometric analysis (reference value: 92%); type: functional; settings: read-out: Activity
HCT-116 [34] = assay: Induction of apoptosis in human HCT116 cells assessed as early apoptotic cells at 50 uM after 48 hrs by Annexin V/FITC staining based flow cytometric analysis (reference value: 1.26%); type: functional
HCT-116 [35] = assay: Induction of apoptosis in human HCT116 cells assessed as late apoptotic cells at 50 uM after 48 hrs by Annexin V/FITC staining based flow cytometric analysis (reference value: 5.63%); type: functional
HCT-116 [36] = assay: Induction of apoptosis in human HCT116 cells assessed as necrotic cells at 50 uM after 48 hrs by Annexin V/FITC staining based flow cytometric analysis (reference value: 1.12%); type: functional
HCT-116 [37] = assay: Induction of apoptosis in human HCT116 cells assessed as viable cells at 75 uM after 48 hrs by Annexin V/FITC staining based flow cytometric analysis (reference value: 92%); type: functional; settings: read-out: Activity
HCT-116 [38] = assay: Induction of apoptosis in human HCT116 cells assessed as early apoptotic cells at 75 uM after 48 hrs by Annexin V/FITC staining based flow cytometric analysis (reference value: 1.26%); type: functional
HCT-116 [39] = assay: Induction of apoptosis in human HCT116 cells assessed as late apoptotic cells at 75 uM after 48 hrs by Annexin V/FITC staining based flow cytometric analysis (reference value: 5.63%); type: functional
HCT-116 [40] = assay: Induction of apoptosis in human HCT116 cells assessed as necrotic cells at 75 uM after 48 hrs by Annexin V/FITC staining based flow cytometric analysis (reference value: 1.12%); type: functional
LoVo [41] = assay: Induction of ROS generation in human Lovo cells assessed as intracellular ROS level at 25 uM by DCFH-DA staining-based flow cytometric analysis (reference value: 9.18%); type: functional
LoVo [42] = assay: Induction of ROS generation in human Lovo cells assessed as intracellular ROS level at […] 50 by DCFH-DA staining-based flow cytometric analysis (reference value: 9.18%); type: functional; settings: dose 50 µM
HCT-116 [43] = assay: Induction of ROS generation in human HCT116 cells assessed as intracellular ROS level at 25 uM by DCFH-DA staining-based flow cytometric analysis (reference value: 8.91%); type: functional
HCT-116 [44] = assay: Induction of ROS generation in human HCT116 cells assessed as intracellular ROS level at 50 uM by DCFH-DA staining-based flow cytometric analysis (reference value: 8.91%); type: functional
LoVo [45] = assay: Cytotoxicity against FPPS-positive human Lovo cells assessed as cell viability in presence of FOH measured after 48 hrs by MTT assay; type: functional, cell-based
LoVo [46] = assay: Cytotoxicity against FPPS-positive human Lovo cells assessed as cell viability in presence of GGOH measured after 48 hrs by MTT assay; type: functional, cell-based
HCT-116 [47] = assay: Cytotoxicity against FPPS-positive human HCT116 cells assessed as cell viability in presence of FOH measured after 48 hrs by MTT assay; type: functional, cell-based; settings: HCT-116, 48 h
HCT-116 [48] = assay: Cytotoxicity against FPPS-positive human HCT116 cells assessed as cell viability in presence of GGOH measured after 48 hrs by MTT assay; type: functional, cell-based; settings: HCT-116, 48 h
MDA-MB-468 = assay: Growth inhibition of human MDA-MB-468 cells at 100 uM incubated for 48 hrs by MTT assay relative to control; settings: MDA-MB-468, 48 h, read-out: GI

`COc1ccccc1CN(CCS(=O)(=O)N1CCNCC1)S(=O)(=O)c1ccc(C)cc1` gave an inhibition [1] of 24%, a Kd [2] of 14.3 µM and an inhibition of growth at 100 µM (LoVo [3]) of 80%. For the same molecule, the inhibition of growth at 100 µM (HCT-116 [4]) was 80%, the IC50 (LoVo [5]) was 43.6 µM and the IC50 (HCT-116 [6]) was 51.8 µM. It also gave an IC50 (MDA-MB-231) greater than 100 µM, a viability at 100 µM (LoVo [7]) of 19% and a viability at 100 µM (LoVo [8]) of 14.8%. The viability at 100 µM (HCT-116 [9]) was 28.5%, the viability at 100 µM (HCT-116 [10]) was 27.9% and the inhibition (LoVo [11]) was “Active”. For the same molecule, the inhibition (HCT-116 [12]) was “Active”, the Activity (LoVo [13]) was 74.6% and the Activity (HCT-116 [14]) was 60.8%. It also gave a viability at 25 µM (LoVo [15]) of 75.9%, an Activity (LoVo [16]) of 17.8% and an Activity (LoVo [17]) of 4.29%. For the same molecule, the Activity (LoVo [18]) was 2.04%, the viability at 50 µM (LoVo [19]) was 52.3% and the Activity (LoVo [20]) was 24.6%. The Activity (LoVo [21]) was 21.2%, the Activity (LoVo [22]) was 1.84% and the viability at 75 µM (LoVo [23]) was 38.1%. The Activity (LoVo [24]) was 32.7%, the Activity (LoVo [25]) was 26.5% and the Activity (LoVo [26]) was 2.71%. The “fold change (FC)” value [27] was 6.82, the “fold change (FC)” value [28] was 8.13 and the viability at 25 µM (HCT-116 [29]) was 80.9%. The Activity (HCT-116 [30]) was 11.99%, the Activity (HCT-116 [31]) was 5.2% and the Activity (HCT-116 [32]) was 1.98%. For the same molecule, the viability at 50 µM (HCT-116 [33]) was 67.5%, the Activity (HCT-116 [34]) was 16.6% and the Activity (HCT-116 [35]) was 14.6%. It also gave an Activity (HCT-116 [36]) of 1.28%, a viability at 75 µM (HCT-116 [37]) of 49.9% and an Activity (HCT-116 [38]) of 25.8%. For the same molecule, the Activity (HCT-116 [39]) was 20.4%, the Activity (HCT-116 [40]) was 3.86% and the Activity (LoVo [41]) was 19.6%. It also gave an Activity (LoVo [42]) of 48%, an Activity (HCT-116 [43]) of 18.7% and an Activity (HCT-116 [44]) of 30.9%. The IC50 (LoVo [45]) was 55.6 µM, the IC50 (LoVo [46]) was 51 µM and the IC50 (HCT-116 [47]) was 81.1 µM. It also gave an IC50 (HCT-116 [48]) of 73.9 µM and an inhibition of growth at 100 µM (MDA-MB-468) of 80%.

From ChEMBL document CHEMBL4715844, “Structure-based virtual screening and biological evaluation of novel non-bisphosphonate farnesyl pyrophosphate synthase inhibitors” (Eur J Med Chem, 2020)
